For orientation: ED50 means the midpoint of the dose-response relation.

Structures are written as SMILES.

One assay deals with myoclonic seizures induced in mice by the administration of bicuculline. Put plainly: BICM test: antagonism of myoclonic seizures induced in mice by bicuculline. Format: in vivo. The conditions noted are these: Mus musculus; female mice; oral, 1 h before (+)-bicuculline 0.55 mg/kg i.v.; dose inhibiting seizures in 50% of the animals. From the text: The ability of the compounds to antagonise the myoclonic seizures induced in mice by the administration of bicuculline was observed. Hereinafter, this test is referred to as "BICM".
In the BICM experiments groups of female mice in the weight range 25 to 30 grammes had free access to food and water until one hour before administration of the compound to be tested. The compound to be tested was orally administered at one or more doses in 1% aqueous methylcellulose solution. One hour later (+)-bicuculline at a dose of 0.55 mg/kg was administered intravenously into a tail vein. Such a dose of (+)-bicuculline would generally be expected to induce a seizure in the mice.
During the following two minutes the animals were observed and the percentage of animals in which seizures had been inhibited was recorded. Thus, the greater the anticonvulsant activity of the compound, the higher was the percentage recorded in the BICM test.
A value for the dose inhibiting the seizures in 50% of the animals (ED50) was calculated from the regression straight line plot of the percentage of animals in which seizures were inhibited against the dose of compound.
For `CC(C)(C)c1nccc(-c2nn(-c3ccc(F)cc3)ccc2=O)n1` [Example 1, 3-(2-Tert-butylpyrimidin-4-yl)-1-(4-fluorophenyl)pyridazin-4(1H)-one], the ED50 stood at 4.7 mg/kg. The molecule `CC(C)c1nccc(-c2nn(-c3ccc(F)cc3)ccc2=O)n1` [Example 2, 3-(2-isopropylpyrimidin-4-yl)-1-(4-fluorophenyl)pyridazin-4(1H)-one] registered an ED50 of 4.6 mg/kg. For the molecule `O=c1ccn(-c2ccc(Cl)cc2Cl)nc1-c1ccncn1` [Example 4, 3-(pyrimidin-4-yl)-1-(2,4-dichlorophenyl)pyridazin-4(1H)-one], the 50% effective dose (ED50) came to 158 mg/kg.

On to `CC(C)c1nccc(-c2nn(-c3ccc(Cl)cc3)ccc2=O)n1` [Example 5, 3-(2-isopropylpyrimidin-4-yl)-1-(4-chlorophenyl)pyridazin-4(1H)-one], for which the ED50 was 11.8 mg/kg. As to `O=c1ccn(-c2ccc(Cl)cc2)nc1-c1ccnc(C2CCCCC2)n1` [Example 8, 3-(2-cyclohexylpyrimidin-4-yl)-1-(4-chlorophenyl)pyridazin-4(1H)-one], the 50% effect level (ED50) was put at a dose of 12.9 mg/kg.

The same assay, now with this note: figure in brackets; 100 mg/kg (po); female mice; 1 h before (+)-bicuculline 0.55 mg/kg i.v.
On to `O=c1ccn(-c2ccc(Cl)cc2)nc1-c1ccnc(C2CC2)n1` [Example 6, 3-(2-cyclopropylpyrimidin-4-yl)-1-(4-chlorophenyl)pyridazin-4(1H)-one], for which the “% protection from bicuculline-induced seizures” value is on record as 60%. As for `O=c1ccn(-c2ccc(F)cc2)nc1-c1ccnc(C2CCCCC2)n1` [Example 7, 3-(2-cyclohexylpyrimidin-4-yl)-1-(4-fluorophenyl)pyridazin-4(1H)-one], the “% protection from bicuculline-induced seizures” value stood at 70%.

A further assay deals with seizures in mice induced by a maximal electroshock. Nature of the assay: MESM test: inhibition of seizures in mice induced by a maximal electroshock. Format: in vivo. The following applies: Mus musculus; male mice; oral, 1 h before electroshock (99 mA, 50 Hz, 1.0 second); dose inhibiting seizures in 50% of the mice. As for the experimental part: The ability of the compounds to inhibit seizures in mice induced by a maximal electroshock was observed. Hereinafter, this test is referred to as `MESM`.
In the MESM experiments, groups of male mice in the weight range 25 to 30 grammes had free access to food and water until the start of the experiment. The mice were divided into two groups, a control group and a test group to which a compound of formula I or II would be administered. The control group received an oral dose of 10 ml/kg of a vehicle of 1% aqueous methyl cellulose solution. […] One hour after administration of all drugs an electroshock of duration 1.0 second was administered to all the mice in both groups through ear clip electrodes moistened with saline. […] Such a shock would generally be expected to induce a seizure in the mice.
The greater the anticonvulsant activity of the compound of formula I or II, the higher was the percentage recorded in the MESM test.
If results at more than one dose were available, then a value for the dose inhibiting seizures in 50% of the mice (ED50) was calculated from the regression straight line plot of the percentage of mice in which seizures were inhibited against the dose of the compound of formula I or II administered.
(In general: In the maximal electroshock model the usual endpoint is tonic extension of the hind limbs.)
In turn, `CC(C)c1nccc(-c2nn(-c3ccc(F)cc3)ccc2=O)n1` [Example 2, 3-(2-isopropylpyrimidin-4-yl)-1-(4-fluorophenyl)pyridazin-4(1H)-one] had an ED50 of 83.4 mg/kg.

`O=c1ccn(-c2ccc(Cl)cc2Cl)nc1-c1ccncn1` [Example 4, 3-(pyrimidin-4-yl)-1-(2,4-dichlorophenyl)pyridazin-4(1H)-one] returned an ED50 of 73.6 mg/kg.

The assay is the same for the next values; noted with them: figure in brackets; 100 mg/kg (po); male mice; 1 h before electroshock (99 mA, 50 Hz, 1.0 second).
Take `O=c1ccn(-c2ccc(F)cc2)nc1-c1ccnc(-c2ccccc2)n1` [Example 3, 3-(2-phenylpyrimidin-4-yl)-1-(4-fluorophenyl)pyridazin-4(1H)-one]: the “% protection from MES-induced seizure” value was 50%. Regarding `CC(C)c1nccc(-c2nn(-c3ccc(Cl)cc3)ccc2=O)n1` [Example 5, 3-(2-isopropylpyrimidin-4-yl)-1-(4-chlorophenyl)pyridazin-4(1H)-one], the “% protection from MES-induced seizure” value is recorded as 50%.

`CCCc1nccc(-c2nn(-c3ccc(F)cc3)ccc2=O)n1` [Example 9, 3-(2-propylpyrimidin-4-yl)-1-(4-fluorophenyl)pyridazin-4(1H)-one]: the “% protection from MES-induced seizure” value is recorded as 50%.

The values above are taken from patent publication US5877175A, “Pharmaceutical compositions” (KNOLL Aktiengesellschaft, priority 1995, dated 1999).
